Data on 42 compounds can be found in patent US11091501B2, “Heterocyclic compounds as RSV inhibitors” (Enanta Pharmaceuticals, Inc., priority 2017, dated 2021).

Bounds are passed on as bounds.

One may read the EC50 as the concentration needed to bring the measured effect to its halfway point.

For the test, the system named is Human RSV-A (“Long” strain). Description: RSV in vitro cytoprotection assay (CPE, ATPlite) in HEp-2 cells. Type of test: cell-based. Particulars: human respiratory syncytial virus, 96 h; HEp-2 cells, 4-day incubation, ATPlite readout; read-out: Human RSV-A (“Long” strain) EC50. The source says: RSV is a single stranded negative sense RNA virus that causes respiratory tract infections which can be dangerous to infants, the elderly, and immunosuppressed individuals. Currently there is no vaccine, and therapeutic options are both costly and of limited effectiveness. These approved treatments are Ribavirin, and Palivizumab/Synagis (a monoclonal antibody). RSV has two genotypes, A and B, which differ primarily in the structure of the virus' surface “G” attachment protein. Our current primary screen focuses on RSV-A and uses an in vitro cytoprotection assay where compounds are added in 2-fold dilutions to cells which are then subjected to fully replicative viral particles. Cell viability is measured several days later along with separate measurements of compound cytotoxicity. This report focuses on the results of our most recent screening of compounds.
HEp-2 cells, (originally derived from tumors grown in irradiated-cortisonised weanling rats that had been injected with epidermoid carcinoma tissue from a person's larynx, but later found to be indistinguishable from HeLa cells by PCR DNA analysis), were used for the culturing of genotype A, “Long” strain RSV. Flasks were inoculated with RSV and viral stocks were collected once cytopathic effect (CPE) was greater than 90%. Viral stocks in 25% sucrose media were snap frozen using liquid nitrogen to increase viral stability. Viral stock titers were quantified by tissue culture infectious dose 50% (TCID50) using 8,000 cells per well and 3-fold viral dilutions across a 96-well plate, cultured for 4 days.
Following extensive parameter testing, the final assay is run as follows: HEp-2 cells are seeded into the inner 60 wells of a 96-well plate at 8,000 cells per well in a volume of 50 μL using Growth Media (DMEM without phenol red, 1% L-Glut, 1% Penn/Strep, 1% nonessential amino acids, 10% FBS). 2-Fold serial dilutions of control and test compounds are added to the wells in duplicate in a total volume of 25 μL. Viral stock is then added to the wells in a volume of […] the total volume of each well to 100 μL. Each 96-well plate has a control column of 6 wells with cells and virus but no compound (negative control, max CPE), a column with cells but no compound or virus (positive control, minimum CPE), and a column with no cells or virus or compound (background plate/reagent control). The control wells with cells but no virus are given an additional 25 uL of growth media containing an equal quantity of sucrose as those wells receiving the viral stock in order to keep consistent in media and volume conditions. The outer wells of the plate are filled with 125 μL of growth media to act as a thermal and evaporative moat around the test wells. Following a 4-day incubation period, the plates are read using ATPlite (50 uL added per well), which quantifies the amount of ATP (a measure of cell health) present in each well. Assay plates are read using the Envision luminometer. In parallel, cytotoxicity is examined on an additional 96-well plate treated in an identical manner, but substituting the 25 μL of viral stock for 25 μL of growth media. […] EC50 ranges are as follows: A<0.01 μM; B 0.01-0.05 μM; C>0.05 μM.
On the technique in general: In ATP-based viability assays light output follows the ATP content of the culture.
Consider `O=C(Nc1ccc(C(=O)N2CCc3cc(-c4nc5ccccc5[nH]4)oc3-c3ccc(F)cc32)cc1)c1cc2c(nc1N1CC3(CCOCC3)C1)CCC2` [Example 244], for which the 50% effective concentration (EC50) was below 0.01 µM.

Take `O=C(Nc1c(F)cc(F)cc1F)c1cc2c(s1)-c1cc(F)c(F)cc1N(C(=O)c1ccc(NC(=O)c3cc(F)cnc3N3CC4(CCOCC4)C3)cc1)CC2` [Example 71]: the EC50 was 0.01 to 0.05 µM.

As to `Cc1cnc(N2CC3(CCOCC3)C2)c(C(=O)Nc2ccc(C(=O)N3CCc4cc(C(=O)Nc5c(C)cccc5F)sc4-c4ccc(F)cc43)cc2)c1` [Example 7], the 50% effective concentration (EC50) is below 0.01 µM.

With `O=C(Nc1c(F)cccc1F)c1cc2c(o1)-c1ccccc1N(C(=O)c1ccc(NC(=O)c3cc4c(nc3N3CC5(CCOCC5)C3)CCC4)cc1)CC2` [Example 247], the EC50 is below 0.01 µM.

Consider `O=C(Nc1ccc(C(=O)N2CCc3cc(-c4nc5ccccc5[nH]4)sc3-c3c2ccc(F)c3F)cc1)c1cccnc1N1CC2(CCOCC2)C1` [Example 70], for which the half-maximal effective concentration (EC50) lay within 0.01 to 0.05 µM.

As to `Cc1cnc(N2CC3(CCOCC3)C2)c(C(=O)Nc2ccc(C(=O)N3CCc4c(sc(C(=O)Nc5ncccc5F)c4F)-c4ccccc43)cc2)c1` [Example 215], the EC50 is below 0.01 µM.

As to `Cc1ccc(C(=O)Nc2ccc(C(=O)N3CCc4cc(NC(=O)c5c(F)cccc5Cl)sc4-c4ccccc43)cc2)c(N2CC3(CCOCC3)C2)n1` [Example 277], the EC50 fell in the range of 0.01 to 0.05 µM.

Consider `Cc1ccc(C(=O)Nc2ccc(C(=O)N3CCc4cc(-c5nc6cccc(Cl)c6[nH]5)sc4-c4ccc(F)cc43)cc2)c(N2CC3(CCOCC3)C2)n1` [Example 148], for which the EC50 lay within 0.01 to 0.05 µM.

For the compound `O=C(Nc1c(F)cccc1C(F)(F)F)c1cc2c(o1)-c1ccccc1N(C(=O)c1ccc(NC(=O)c3cc4c(nc3N3CC5(CCOCC5)C3)CCC4)cc1)CC2` [Example 248], the EC50 was below 0.01 µM.

On to `Cc1ccc(C(=O)Nc2ccc(C(=O)N3CCc4cc(C(=O)Nc5c(F)cc(F)cc5F)sc4-c4ccc(F)cc43)cc2)c(N2CC3(CCOCC3)C2)n1` [Example 111], for which the half-maximal effective concentration (EC50) is below 0.01 µM.

On to `Cc1cnc(N2CC3(CCOCC3)C2)c(C(=O)Nc2ccc(C(=O)N3CCc4c(sc(C(=O)Nc5c(F)cccc5F)c4F)-c4ccccc43)cc2)c1` [Example 93], for which the EC50 is below 0.01 µM.

On to `CCS(=O)(=O)CCNc1ncccc1C(=O)Nc1ccc(C(=O)N2CCc3cc(C(=O)Nc4c(F)cccc4F)sc3-c3ccc(F)cc32)cc1` [Example 59], for which the EC50 was above 0.05 µM.

Take `Cc1cnc(N2CC3(CCOCC3)C2)c(C(=O)Nc2ccc(C(=O)N3CCc4cc(-c5cccnc5F)sc4-c4ccc(F)cc43)cc2)c1` [Example 164]: the EC50 is below 0.01 µM.

For `O=C(Nc1c(F)cccc1F)c1cc2c(s1)-c1ccc(F)cc1N(C(=O)c1ccc(NC(=O)c3cc(F)cnc3N3CC4(CCOCC4)C3)cc1)CC2` [Example 35], the EC50 is below 0.01 µM.

As for `Cc1cnc(N2CC3(CCOCC3)C2)c(C(=O)Nc2ccc(C(=O)N3CCc4c(sc(C(=O)Nc5c(C)cccc5C)c4Cl)-c4ccccc43)cc2)c1` [Example 271], the EC50 was in the range of 0.01 to 0.05 µM.

As to `Cc1ccc(C(=O)Nc2ccc(C(=O)N3CCc4cc(NC(=O)OC5CCCC5)sc4-c4ccccc43)cc2)c(N2CC3(CCOCC3)C2)n1` [Example 299], the EC50 is 0.01 to 0.05 µM.

With `O=C(Nc1c(F)cccc1F)c1cc2c(o1)-c1ccc(F)cc1N(C(=O)c1ccc(NC(=O)c3cccnc3N3CC4(CCOCC4)C3)cc1)CC2` [Example 99], the EC50 was below 0.01 µM.

For the compound `Cc1cnc(N2CC3(CCOCC3)C2)c(C(=O)Nc2ccc(C(=O)N3CCc4cc(NC(=O)c5ccccc5)sc4-c4ccccc43)cc2)c1` [Example 284], the EC50 was below 0.01 µM.

With `Cc1cnc(N2CC3(CCOCC3)C2)c(C(=O)Nc2ccc(C(=O)N3CCc4c(sc(NC(=O)c5c(F)cccc5Cl)c4F)-c4ccccc43)cc2)c1` [Example 305], the EC50 was below 0.01 µM.

For `COc1ccc(C(=O)Nc2ccc(C(=O)N3CCc4cc(C(=O)Nc5c(F)cc(F)cc5Cl)sc4-c4ccc(F)cc43)cc2)c(N2CC3(CCOCC3)C2)n1` [Example 24], the EC50 was in the range of 0.01 to 0.05 µM.

`Cc1cnc(N2CC3(CCOCC3)C2)c(C(=O)Nc2ccc(C(=O)N3CCc4cc(NS(=O)(=O)c5ccccc5F)sc4-c4ccccc43)cc2)c1` [Example 290]: the EC50 was above 0.05 µM.

`O=C(Nc1ccc(C(=O)N2CCc3sc(-c4nc5ccccc5[nH]4)cc3-c3ccccc32)cc1)c1cc2c(nc1N1CC3(CCOCC3)C1)CCC2` [Example 264]: the EC50 fell in the range of 0.01 to 0.05 µM.

In the case of `Cc1cccc(F)c1NC(=O)c1cc2c(s1)-c1ccc(C(F)(F)F)cc1N(C(=O)c1ccc(NC(=O)c3cccnc3N3CC4(CCOCC4)C3)cc1)CC2` [Example 85], the EC50 is above 0.05 µM.

Turning to `Cc1ccc(C(=O)Nc2ccc(C(=O)N3CCc4cc(C(=O)Nc5c(F)cccc5F)oc4-c4ccccc43)cc2)c(N2CC3(CCOCC3)C2)n1` [Example 254], the EC50 is below 0.01 µM.

With `Cc1cnc(N2CC3(CCOCC3)C2)c(C(=O)Nc2ccc(C(=O)N3CCc4cc(C(=O)Nc5ncc(C)o5)sc4-c4ccc(F)cc43)cc2)c1` [Example 134], the EC50 was below 0.01 µM.

Consider `Cc1cnc(N2CC3(CCOCC3)C2)c(C(=O)Nc2ccc(C(=O)N3CCc4c(sc(C(=O)Nc5c(C)cccc5C#N)c4F)-c4ccccc43)cc2)c1` [Example 204], for which the EC50 is below 0.01 µM.

As for `Cc1cnc(N2CC3(CCOCC3)C2)c(C(=O)Nc2ccc(C(=O)N3CCc4c(sc(C(=O)Nc5ncc(C)s5)c4F)-c4ccccc43)cc2)c1` [Example 223], the EC50 was 0.01 to 0.05 µM.

With `Cc1ccc(C(=O)Nc2ccc(C(=O)N3CCc4cc(C(=O)Nc5c(F)cccc5Cl)oc4-c4ccccc43)cc2)c(N2CC3(CCOCC3)C2)n1` [Example 259], the EC50 was below 0.01 µM.

On to `O=C(Nc1c(F)cccc1F)c1nc2c(o1)-c1ccccc1N(C(=O)c1ccc(NC(=O)c3cccnc3N3CC4(CCOCC4)C3)cc1)CC2` [Example 108], for which the EC50 is 0.01 to 0.05 µM.

As for `Cc1cnc(N2CC3(CCOCC3)C2)c(C(=O)Nc2ccc(C(=O)N3CCc4c(sc(-c5nc6ccccc6[nH]5)c4Cl)-c4ccccc43)cc2)c1` [Example 272], the EC50 was below 0.01 µM.

As to `O=C(Nc1c(F)cc(F)cc1F)c1cc2c(o1)-c1ccccc1N(C(=O)c1ccc(NC(=O)c3cc4c(nc3N3CC5(CCOCC5)C3)CCC4)cc1)CC2` [Example 253], the EC50 is below 0.01 µM.

Regarding `Cc1ccc(C(=O)Nc2ccc(C(=O)N3CCc4c(sc(NC(=O)c5c(Cl)cccc5Cl)c4F)-c4ccccc43)cc2)c(N2CC3(CCOCC3)C2)n1` [Example 310], the EC50 was in the range of 0.01 to 0.05 µM.

On to `N#Cc1cnc(N2CC3(CCOCC3)C2)c(C(=O)Nc2ccc(C(=O)N3CCc4cc(C(=O)Nc5c(Cl)cccc5Cl)sc4-c4ccc(F)cc43)cc2)c1` [Example 18], for which the EC50 was in the range of 0.01 to 0.05 µM.

Turning to `O=C(Nc1c(F)cc(F)cc1F)c1nc2c(s1)-c1ccccc1N(C(=O)c1ccc(NC(=O)c3cccnc3N3CC4(CCOCC4)C3)cc1)CC2` [Example 105], the EC50 was 0.01 to 0.05 µM.

`Cc1cnc(N2CC3(CCOCC3)C2)c(C(=O)Nc2ccc(C(=O)N3CCc4cc(-c5ccc(F)cn5)sc4-c4ccc(F)cc43)cc2)c1` [Example 163]: the EC50 was below 0.01 µM.

For the compound `O=C(Nc1c(F)cccc1Cl)c1cc2c(s1)-c1c(cc(F)c(F)c1F)N(C(=O)c1ccc(NC(=O)c3cccnc3N3CC4(CCOCC4)C3)cc1)CC2` [Example 80], the EC50 is 0.01 to 0.05 µM.

On to `Cc1cnc(N2CC3(CCOCC3)C2)c(C(=O)Nc2ccc(C(=O)N3CCc4cc(-c5ncco5)sc4-c4ccc(F)cc43)cc2)c1` [Example 169], for which the EC50 is below 0.01 µM.

In the case of `Cc1ccc(C(=O)Nc2ccc(C(=O)N3CCc4cc(-c5nc6ccccc6[nH]5)sc4-c4ccc(F)cc43)cc2)c(N2CC3(CCOCC3)C2)n1` [Example 147], the EC50 was below 0.01 µM.

As to `Cc1cnc(N2CC3(CCOCC3)C2)c(C(=O)Nc2ccc(C(=O)N3CCc4sc(C(=O)Nc5c(F)cccc5F)cc4-c4ccccc43)cc2)c1` [Example 261], the EC50 is below 0.01 µM.

Take `O=C(Nc1c(F)cc(F)cc1F)c1cc2c(o1)-c1ccc(F)cc1N(C(=O)c1ccc(NC(=O)c3cccnc3N3CC4(CCOCC4)C3)cc1)CC2` [Example 100]: the EC50 was below 0.01 µM.

On to `O=C(Nc1c(F)cc(F)cc1Cl)c1cc2c(s1)-c1ccc(F)cc1N(C(=O)c1ccc(NC(=O)c3cc4ccccc4nc3N3CCCS(=O)(=O)CC3)cc1)CC2` [Example 34], for which the EC50 is above 0.05 µM.

On to `Cc1cnc(N2CC3(CCOCC3)C2)c(C(=O)Nc2ccc(C(=O)N3CCc4cc(-c5nnnn5C)sc4-c4ccc(F)cc43)cc2)c1` [Example 195], for which the EC50 fell in the range of 0.01 to 0.05 µM.
